Reference: PMC9609924, “In Vitro Characterization of Inhibitors for Lung A549 and Leukemia K562 Cell Lines from Fungal Transformation of Arecoline Supported by In Silico Docking to M3-mAChR and ADME Prediction” (Pharmaceuticals, 2022)
Counter-ions that a name gives are not always drawn. Like-named read-outs stand apart in the source and are kept apart here.

Tests used:
leukemia K562 cell line = test: MTT cytotoxicity assay, leukemia K562; conditions: Homo sapiens, K562, 48 h, read-out: Cytotoxicity IC50 ± SD, Leukemia Cancer Cell K562
Experimental: (§1) Cell lines were obtained from the American Type Culture Collection (ATCC). Cells were cultured using Dulbecco’s Modified Eagle’s Medium (DMEM) (Invitrogen/Life Technologies, Waltham, MA, USA) supplemented with 10% fetal bovine serum (FBS, Hyclone, Logan, UT, USA), 10 µg/mL of insulin (Sigma Aldrich, St. Louis, MO, USA) and 1% mixture of penicillin and streptomycin. After incubation for 48 h with the isolated compounds, the viability of cells was measured using an MTT assay to determine the toxic concentration for each compound using the microplate reader according to the published procedures.

[1] = tested on: non-small-cell lung cancer A549 cell line; test: cells; conditions: Homo sapiens, A549, 48 h, read-out: Cytotoxicity IC50 ± SD, Non-Small-Cell Lung Cancer A549
Experimental: as §1

normal lung cell WI38 = test: MTT cytotoxicity assay, normal lung cell WI38; assay type: cell-based; conditions: for IC50: Homo sapiens, read-out: Normal Lung Cell Line WI38 IC50 ± SD
Experimental: (§2) The selectivity index identifies the selectivity of the tested compounds toward the cancer cell line and is calculated by dividing the IC50 against the normal cell line by the IC50 against the cancer cells.

[2] = tested on: normal blood cell PCS-800-016; test: MTT cytotoxicity assay, normal blood cell PCS-800-016; assay type: cell-based; conditions: for IC50: read-out: Normal Blood Cell PCS-800-016 IC50 ± SD
Experimental: as §2

[3] = tested on: non-small-cell lung cancer A549 cells; test: Annexin V-FITC/propidium iodide apoptosis detection, A549; assay type: cell-based
Experimental: (§3) Furthermore, compound 1 induced early and late apoptosis and necrosis (5.09%, 10.38%, and 13.14%, respectively) compared to the untreated cells (0.29%, 0.18%, and 0.79, respectively).
(§4) For cell cycle analysis, a propidium iodide flow cytometry kit (ab139418, Abcam, Cambridge, UK) was used. For apoptosis, we used an annexin V apoptosis kit, which is composed of annexin V-FITC (fluorescein isothiocyanate), 1X binding buffer, and propidium iodide. Detection was conducted by measuring DNA content using a flow cytometer.

[4] = tested on: non-small-cell lung cancer A549 cells; test: Flow cytometry of DNA content, cell cycle distribution, A549; assay type: cell-based
Experimental: as §3, §4

[5] = tested on: leukemia cancer K562 cells; test: Annexin V-FITC/propidium iodide apoptosis detection, K562; assay type: cell-based, human; conditions: for Late apoptosis: untreated control 0.04%; for Early apoptosis: untreated control 0.37%; for Necrosis: untreated control 1.27%; for Total cell death: untreated control 1.68%
Experimental: as §4

[6] = tested on: leukemia cancer K562 cells; test: Flow cytometry of DNA content, cell cycle distribution, K562; assay type: cell-based, human; conditions: for %Pre-G1 (sub-G1) cells, cell cycle distribution: untreated control 1.68%; for %G2/M cells, cell cycle distribution: untreated control 12.59%; for %S cells, cell cycle distribution: untreated control 42.57%; for %G0-G1 cells, cell cycle distribution: untreated control 44.84%
Experimental: as §4

SMILES: COC(=O)C1=CCCN(C)C1 [Arecoline hydrobromide, reference compound]
- IC50 (leukemia K562 cell line): 15.3 ± 1.08 µM
- IC50 [1]: 11.7 ± 0.71 µM

SMILES: CN1CCC(O)CC1 [Compound 1, 1-Methylpiperidin-4-ol]
- IC50 (normal lung cell WI38; WI-38, MTT, 48 h incubation): 18.3 ± 0.91 µM
- SI (Lung), selectivity index (normal lung cell WI38; IC50 against normal WI38 divided by IC50 against A549): 5.93
- SI (Blood Cell), selectivity index ([2]; IC50 against normal PCS-800-016 divided by IC50 against K562): 6.32
- IC50 ([2]; MTT, 48 h incubation): 9.87 ± 0.49 µM
- IC50 (leukemia K562 cell line): 1.56 ± 0.11 µM
- IC50 [1]: 3.08 ± 0.19 µM
- Fold increase of early apoptosis than control ([3]; A549, versus untreated cells): 17.55 fold
- Fold increase of late apoptosis than control ([3]; A549, versus untreated cells): 57.67 fold
- Fold increase of necrosis than control ([3]; A549, versus untreated cells): 16.63 fold
- Fold increase of total cell death than control ([3]; A549, versus untreated cells): 22.71 fold
- Late apoptosis ([3]; A549, untreated control 0.18%): 10.38%
- Early apoptosis ([3]; A549, untreated control 0.29%): 5.09%
- Necrosis ([3]; A549, untreated control 0.79%): 13.14%
- Total cell death ([3]; A549, untreated control 1.26%): 28.61%
- Phase of cell cycle arrest [4]: G2/M phase
- %Pre-G1 (sub-G1) cells, cell cycle distribution ([4]; untreated control 1.26%): 28.61%
- %G2/M cells, cell cycle distribution ([4]; untreated control 8.09%): 24.88%
- %S cells, cell cycle distribution ([4]; untreated control 35.85%): 31.01%
- %G0-G1 cells, cell cycle distribution ([4]; untreated control 56.06%): 44.11%

SMILES: C[N+]1([O-])CCC(O)CC1 (stereo not drawn) [Compound 2, 4-Hydroxy-1-methylpiperidine 1-oxide]
- IC50 (leukemia K562 cell line): > 100 µM
- IC50 [1]: > 100 µM

SMILES: O=C(O)C1CCCNC1 [Compound 3, D-piperidine-3-carboxylic acid]
- IC50 (normal lung cell WI38; WI-38, 48 h): 26.6 ± 1.33 µM
- IC50 ([2]; 48 h): 37.9 ± 1.89 µM
- IC50 (leukemia K562 cell line): 3.33 ± 0.24 µM
- IC50 [1]: 7.33 ± 0.45 µM
- Late apoptosis [5]: 30.35%
- Early apoptosis [5]: 2.33%
- Necrosis [5]: 10.54%
- Total cell death [5]: 43.22%
- Phase of cell cycle arrest [6]: S phase
- %Pre-G1 (sub-G1) cells, cell cycle distribution [6]: 43.22%
- %G2/M cells, cell cycle distribution [6]: 7.48%
- %S cells, cell cycle distribution [6]: 57.23%
- %G0-G1 cells, cell cycle distribution [6]: 35.29%

SMILES: CN1CCC=C(C(=O)O)C1 [Compound 4, 1-Methyl-1,2,5,6-tetrahydropyridine-3-carboxylic acid]
- IC50 (leukemia K562 cell line): 67.3 ± 0.53 µM
- IC50 [1]: 90.9 ± 0.59 µM

SMILES: O=C(O)c1cccnc1 [Compound 5, Pyridine-3-carboxylic acid]
- IC50 (normal lung cell WI38; WI-38, MTT, 48 h incubation): 13.9 ± 0.69 µM
- IC50 ([2]; MTT, 48 h incubation): 20.2 ± 1.01 µM
- IC50 (leukemia K562 cell line): 2.15 ± 0.15 µM
- IC50 [1]: 3.29 ± 0.2 µM
- Late apoptosis [5]: 11.74%
- Early apoptosis [5]: 2.94%
- Necrosis [5]: 17.06%
- Total cell death [5]: 31.74%
- Phase of cell cycle arrest [6]: S phase
- %Pre-G1 (sub-G1) cells, cell cycle distribution [6]: 31.74%
- %G2/M cells, cell cycle distribution [6]: 10.68%
- %S cells, cell cycle distribution [6]: 52.91%
- %G0-G1 cells, cell cycle distribution [6]: 36.41%

SMILES: COc1cccc2c1C(=O)c1c(O)c3c(c(O)c1C2=O)C[C@@](O)(C(=O)CO)C[C@@H]3O[C@H]1C[C@H](N)[C@H](O)[C@H](C)O1 [Doxorubicin, reference compound]
- IC50 (leukemia K562 cell line): 6.94 ± 0.21 µM
- IC50 [1]: 5.05 ± 0.13 µM

SMILES: CN[C@@H]1C[C@H]2O[C@@](C)([C@@H]1OC)n1c3ccccc3c3c4c(c5c6ccccc6n2c5c31)C(=O)NC4 [Staurosporine, reference compound]
- IC50 (leukemia K562 cell line): 5.07 ± 0.36 µM
